Source: patent US8859491B2 (priority 2011, dated 2014)
Non-standard residues stand in square brackets, D forms with d. No end group written: not given here. *: point of attachment. β‑estradiol 3‑ether = C[C@]12CC[C@@H]3c4ccc(O*)cc4CC[C@H]3[C@@H]1CC[C@@H]2O; Aib = CC(C)(N)C(=O)O

Key:
[1] = Stability analysis in 100% human plasma (estrogen release); conditions: 1 mg/mL, pH 7.4, 37° C.
glucocorticoid receptor = molecular target: T1, glucocorticoid receptor (Homo sapiens, UniProt P04150); experiment: EC50
T1 construct: two clones of HeLa cells (ATCC #CCL-2) transfected with murine mammary tumor virus long terminal repeat-driven firefly luciferase; host or cells: HeLa
T1 sequence (P04150 whole entry, looked up): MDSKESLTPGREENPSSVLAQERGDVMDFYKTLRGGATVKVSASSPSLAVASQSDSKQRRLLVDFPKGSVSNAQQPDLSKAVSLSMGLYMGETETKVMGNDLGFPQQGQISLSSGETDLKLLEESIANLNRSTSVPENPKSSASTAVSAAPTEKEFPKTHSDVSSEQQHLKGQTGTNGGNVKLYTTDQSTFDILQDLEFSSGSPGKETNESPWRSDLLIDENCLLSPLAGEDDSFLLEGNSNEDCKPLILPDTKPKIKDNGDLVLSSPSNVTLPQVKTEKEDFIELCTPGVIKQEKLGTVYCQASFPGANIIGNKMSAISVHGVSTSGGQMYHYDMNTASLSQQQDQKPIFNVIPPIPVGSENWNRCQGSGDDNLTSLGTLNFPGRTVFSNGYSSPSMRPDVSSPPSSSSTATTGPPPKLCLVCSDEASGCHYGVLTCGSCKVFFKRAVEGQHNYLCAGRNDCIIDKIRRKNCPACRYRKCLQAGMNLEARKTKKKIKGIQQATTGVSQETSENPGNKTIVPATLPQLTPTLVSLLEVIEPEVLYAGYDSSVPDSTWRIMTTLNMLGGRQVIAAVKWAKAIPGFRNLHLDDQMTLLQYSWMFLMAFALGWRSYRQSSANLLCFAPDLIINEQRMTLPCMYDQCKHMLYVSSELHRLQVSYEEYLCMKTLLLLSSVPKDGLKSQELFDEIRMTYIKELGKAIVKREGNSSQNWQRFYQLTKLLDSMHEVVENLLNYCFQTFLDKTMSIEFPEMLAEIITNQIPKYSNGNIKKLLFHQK

[2] = Administration of GLP-1 conjugates to ovariectomized mice (FIGS. 13, 14); type: in vivo
[3] = Example 27: DIO mice, sc daily for two weeks; type: in vivo
Experimental: Diet induced obesity mice were administered subcutaneous injections once per day for two weeks with vehicle or 40 or 400 μg/kg of one of the following: […]

[4] = Administration of GLP-1 conjugates to mice, model not stated (FIGS. 15, 19); type: in vivo; conditions: vs GLP-1 agonist alone or GLP-1 agonist/Estrogen(3-ester) conjugate
[5] = Example 30: DIO wild type, ERβ KO and ERα KO mice, 400 μg/kg sc daily for two weeks; type: in vivo
Experimental: Diet-induced obesity wild type mice, estrogen receptor beta knock-out (ERβ KO) mice, and estrogen receptor alpha knock-out (ERα KO) mice were administered subcutaneous injections once per day for two weeks with vehicle or 400 μg/kg of one of the following:

[6] = Example 29: DIO mice, 400 μg/kg sc daily for seven days; type: in vivo
[7] = Example 25: ovariectomized C57BI/6 mice, 4000 μg/kg sc daily for 7 days; type: in vivo
[8] = Administration of GLP-1 conjugates to db/db mice (FIG. 2); type: in vivo; conditions: high dose
[9] = Administration of GLP-1 conjugates to diet induced obese mice (FIGS. 3-10, 12); type: in vivo; conditions: for total body weight / blood glucose levels: over a period of 7 days; for total body weight: FIG. 7a; for blood glucose levels: FIG. 7b
[10] = Example 16: mice on diabetic diet for 9 months, sc dosing; type: in vivo; conditions: low daily dose, 7 days
[11] = Example 20: DIO mice, sc daily; type: in vivo; conditions: 7 days
Experimental: Diet induced obesity mice (DIO) (N=8, average body weight 61 g) were administered subcutaneous injections once per day for one or two weeks with vehicle or 40, 400, 1200, or 4000 μg/kg of one of the following: […]

[12] = Example 19: mice, sc daily for one week; type: in vivo; conditions: between days 0 and 7
Experimental: Mice (N=8, average body weight 55 g) were administered subcutaneous injections once per day for one week with vehicle or one of the following:
Body weight was measured after 7 days and the change in body weight was determined (FIG. 8a). There was little apparent difference in body weight lowering at these doses for the peptides with and without the estrogen.

[13] = Example 17: DIO mice, 40 μg/kg sc daily for one week; type: in vivo; conditions: between days 0 and 7
Experimental: Diet-induced obesity (DIO) mice (N=8, average initial body weight=65 g) were subcutaneously injected once per day for one week with vehicle or 40 μg/kg one of the following:
Body weight was measured after 7 days and the change in body weight and the fat mass were determined (FIG. 6a-b). […] The analysis of fat mass (FIG. 6b) was relatively constant with total loss in body weight.

[14] = Example 15: DIO mice, daily sc dosing; type: in vivo; conditions: high dose, between days 0 and 21
Experimental: Diet-induced obesity (DIO) mice (N=8, average initial body weight=59 g) were subcutaneously injected once per day for four weeks with vehicle or one of the following: […] Blood glucose levels were measured at the 0, 15, 30, 60, and 120 min time points. FIG. 4a presents data from this experiment. Body weight was measured after 21 days and the change in total body weight and fat mass were determined (FIGS. 4b-c).

[15] = Example 21: mice on diabetic diet, sc daily for one week; type: in vivo; conditions: between days 0 and 7
[16] = high dose, between days 0 and 21, vs GLP-1(Aib2E16Cex K40) (SEQ ID NO: 1647) alone, FIG. 4d

For CC[C@H](C)[C@H](NC(=O)[C@H](Cc1ccccc1)NC(=O)[C@H](CCC(=O)O)NC(=O)[C@H](CCCCN)NC(=O)[C@H](C)NC(=O)[C@H](C)NC(=O)[C@H](CCC(N)=O)NC(=O)[C@H](CCC(=O)O)NC(=O)[C@H](CCC(=O)O)NC(=O)[C@H](CC(C)C)NC(=O)[C@H](Cc1ccc(O)cc1)NC(=O)[C@H](CO)NC(=O)[C@H](CO)NC(=O)[C@@H](NC(=O)[C@H](CC(=O)O)NC(=O)[C@H](CO)NC(=O)[C@@H](NC(=O)[C@H](Cc1ccccc1)NC(=O)[C@@H](NC(=O)CNC(=O)[C@H](CCC(=O)O)NC(=O)C(C)(C)NC(=O)[C@@H](N)Cc1c[nH]cn1)[C@@H](C)O)[C@@H](C)O)C(C)C)C(=O)N[C@@H](C)C(=O)N[C@@H](Cc1c[nH]c2ccccc12)C(=O)N[C@@H](CC(C)C)C(=O)N[C@H](C(=O)N[C@@H](CCCCN)C(=O)NCC(=O)NCC(=O)N1CCC[C@H]1C(=O)N[C@@H](CO)C(=O)N[C@@H](CO)C(=O)NCC(=O)N[C@@H](C)C(=O)N1CCC[C@H]1C(=O)N1CCC[C@H]1C(=O)N1CCC[C@H]1C(=O)N[C@@H](CO)C(=O)N[C@@H](CCCCNC(=O)CCC(=O)Oc1ccc2c(c1)CC[C@@H]1[C@@H]2CC[C@]2(C)[C@@H](OC(C)=O)CC[C@@H]12)C(N)=O)C(C)C [GLP-1/Estrogen(3-ester)], the “estrogen release in plasma” value [1] was “substantial estrogen release after 3 hours” and the “time to complete estrogen release in plasma” value [1] was ≤ 6 h.
For CC[C@H](C)[C@H](NC(=O)[C@H](Cc1ccccc1)NC(=O)[C@H](CCC(=O)O)NC(=O)[C@H](CCCCN)NC(=O)[C@H](C)NC(=O)[C@H](C)NC(=O)[C@H](CCC(N)=O)NC(=O)[C@H](CCC(=O)O)NC(=O)[C@H](CCC(=O)O)NC(=O)[C@H](CC(C)C)NC(=O)[C@H](Cc1ccc(O)cc1)NC(=O)[C@H](CO)NC(=O)[C@H](CO)NC(=O)[C@@H](NC(=O)[C@H](CC(=O)O)NC(=O)[C@H](CO)NC(=O)[C@@H](NC(=O)[C@H](Cc1ccccc1)NC(=O)[C@@H](NC(=O)CNC(=O)[C@H](CCC(=O)O)NC(=O)C(C)(C)NC(=O)[C@@H](N)Cc1c[nH]cn1)[C@@H](C)O)[C@@H](C)O)C(C)C)C(=O)N[C@@H](C)C(=O)N[C@@H](Cc1c[nH]c2ccccc12)C(=O)N[C@@H](CC(C)C)C(=O)N[C@H](C(=O)N[C@@H](CCCCN)C(=O)NCC(=O)NCC(=O)N1CCC[C@H]1C(=O)N[C@@H](CO)C(=O)N[C@@H](CO)C(=O)NCC(=O)N[C@@H](C)C(=O)N1CCC[C@H]1C(=O)N1CCC[C@H]1C(=O)N1CCC[C@H]1C(=O)N[C@@H](CO)C(=O)NC(CCSSCCNC(=O)OCC(=O)[C@@]1(O)[C@H](C)C[C@H]2[C@@H]3CCC4=CC(=O)C=C[C@]4(C)[C@@]3(F)[C@@H](O)C[C@@]21C)C(N)=O)C(C)C (stereo partly shown) [[Aib2, E16]GLP-1-CEX-homoCys40(S—SCH2CH2NHCO—O-DEX)], the EC50 (glucocorticoid receptor) was 65.4 µM.
For “GLP-1 agonist/Estrogen(3-ether): active, estrogen-stable GLP-1 agonist/Estrogen(3-ether) conjugate (H[Aib]EGTFTSDVSSYLEEQAAKEFIAWLVKGGPSSGAPPPSK(β‑estradiol 3‑ether)-NH2)”, the fat mass ([2]; FIG. 13b) was “decrease in fat mass”, the blood glucose levels ([2]; FIG. 13d) was “decrease in blood glucose levels greater than vehicle” and the “change in body weight” value ([2]; vs GLP-1 agonist alone and the inactive d-amino acid conjugates, FIG. 13a) was “greater decrease”. The food intake ([2]; vs GLP-1 agonist alone and the inactive d-amino acid conjugates, FIG. 13c) was “consumed less food”, the “change in body weight” value ([3]; 40 or 400 μg/kg, after 15 days) was “significantly greater decrease in body weight” and the cumulative food intake ([3]; 15 days) was “consumed significantly less food”. For the same compound, the “change in body weight” value ([4]; FIG. 15a) was “significantly greater decrease”, the cumulative food intake ([4]; FIG. 15b) was “significantly less food” and the “decrease in body weight” value ([5]; ERα KO mice, two weeks) was ~20%. For the same compound, the “decrease in body weight” value ([5]; ERβ KO mice, two weeks) was ~15%, the cumulative food intake ([5]; knock-out mice) was “consumed the least amount of food” and the “decrease in body weight” value ([5]; wild type DIO mice, two week period) was ~10%. The “change in body weight” value ([6]; after 7 days) was “greatest decrease in body weight”, the “change in blood glucose” value ([6]; over 7 days) was “decrease in blood glucose levels over 7 days, with the decrease greater in mice that were administered the conjugate” and the “change in blood glucose” value ([7]; 4000 μg/kg) was “decrease in blood glucose levels greater than vehicle”. The fat mass ([7]; 4000 μg/kg) was “decrease in fat mass”, the “change in body weight” value ([7]; 4000 μg/kg, after 7 days) was “greater decrease in body weight” and the cumulative food intake ([7]; 7 days) was “consumed less food”.
In the case of “GLP-1(Aib^2A^22CexK^40)/Estrogen(17-ester) (H[Aib]EGTFTSDVSSYLEGQAAKEAIAWLVKGGPSSGAPPPSK-NH2; not fully specified (residue 40)) [SEQ ID NO: 1656]”, the “change in body weight” value ([8]; FIG. 2a) is reported as “slightly greater decrease in body weight than mice that were administered GLP-1 alone, but similar to vehicle”, the blood glucose levels ([8]; between days 0 and 14, FIGS. 2b and 2c) is reported as “greatest decrease” and the “change in body weight” value ([9]; high dose, FIG. 3b) is reported as “greatest decrease”. For the same compound, the “change in fat mass” value ([9]; high dose, FIG. 3c) was “greatest decrease”, the “change in lean muscle mass” value ([9]; high dose, FIG. 3d) was “least amount of change” and the “changes in blood glucose” value ([9]; high dose, between days 0 and 14, FIG. 3e) was “greatest decrease”.
For “GLP-1(Aib^2E^16C^24(PEG-40 kDa)Cex K^40): GLP-1 analog PEGylated (40 kDa) at Cys24 (H[Aib]EGTFTSDVSSYLEEQAAKEFIC(PEG 40 kDa thioether)WLVKGGPSSGAPPPSK-NH2)”, the cumulative food intake [10] was “consumed the least amount of food”.
For “GLP-1(Aib^2E^16Cex K^40)/Estrogen(3-ester): E16 GLP-1 analog conjugated to estrogen by 3-ester (H[Aib]EGTFTSDVSSYLEEQAAKEFIAWLVKGGPSSGAPPPSK-NH2; not fully specified (residue 40))”, the cumulative food intake [11] was “consumed significantly less food than mice that were administered GLP-1 alone” and the “change in blood glucose levels” value [12] was “greatest change in blood glucose levels”.
With “GLP-1(Aib^2E^16Cex K^40)/Estrogen(17-ester): E16 GLP-1 analog conjugated to estrogen by 17-ester (H[Aib]EGTFTSDVSSYLEEQAAKEFIAWLVKGGPSSGAPPPSK-NH2; not fully specified (residue 40))” the “change in blood glucose” value [13] was “greatest change in blood glucose”.
For “GLP-1(Aib^2E^16K^40Cex)/Estrogen(3-ether) (H[Aib]EGTFTSDVSSYLEEQAAKEFIAWLVKGGPSSGAPPPSK-NH2; not fully specified (residue 40)) [SEQ ID NO: 1651]”, the “change in blood glucose levels” value [14] was “greater change in blood glucose levels”, the “change in blood glucose” value ([9]; FIG. 5b, SEQ ID NO: 1647 at high or low doses, SEQ ID NO: 1651 at high dose) was “greatest change” and the “change in blood glucose levels” value ([9]; between days 0 and 7, FIG. 6c) was “greatest change”. For the same compound, the “change in blood glucose levels” value [9, 16] was “greater change”, the total body weight [9] was “greatest decrease” and the blood glucose levels [9] was “greatest decrease”.
With “GLP-1(Aib^2E^16K^40Cex)/Estrogen(17-ester) (H[Aib]EGTFTSDVSSYLEEQAAKEFIAWLVKGGPSSGAPPPSK-NH2; not fully specified (residue 40)) [SEQ ID NO: 1655]” the “change in blood glucose levels” value [14] was “greater change in blood glucose levels”, the “change in blood glucose levels” value ([9]; between days 0 and 7, FIG. 6c) was “greatest change” and the “change in blood glucose levels” value [9, 16] was “greater change”. The total body weight [9] was “greatest decrease” and the blood glucose levels [9] was “greatest decrease”.
In the case of “SEQ ID NO: 1659: GLP-1 based glucagon superfamily peptide conjugated to estradiol or estrone through a hydrolyzable linkage ([dA][Aib][dE]G[dT][dF][dT][dS][dD][dV][dS][dS][dY][dL][dE]G[dQ][dA][dA][dK][dE][dA][dI][dA][dW][dL][dV][dK]GG[dP][dS][dS]G[dA][dP][dP][dP][dS]K-NH2; not fully specified (residue 40))”, the “change in blood glucose levels” value [15] is reported as “greater change in blood glucose levels”.
